Our source for the IC50 values is ChEMBL document CHEMBL1130235, “4-hydroxy-5,6-dihydropyrones. 2. Potent non-peptide inhibitors of HIV protease” (J Med Chem, 1997).

Assay [1] addresses T1, Human immunodeficiency virus type 1 protease (Human immunodeficiency virus 1, UniProt Q72874). Kind of assay: Inhibitory activity against HIV protease.
The target of assay [2] is T1, Human immunodeficiency virus type 1 protease. In words: Inhibitory activity against HIV protease at pH 4.7.
Assay [3] shares this target. In words: Inhibitory activity against HIV protease at pH 6.2.

Usually IC50 stands for the concentration needed to halve the response being measured. In assay [1], `NC(=O)CCCC1(c2ccccc2)CC(=O)C(SCCc2ccccc2)=C(O)O1` (stereo not drawn) came in with an IC50 of 1300 nM. In turn, `CC(C)c1ccc(C(C)C)c(SC2=C(O)OC(CCc3ccccc3)(c3ccccc3)CC2=O)c1` (stereo not drawn) had an IC50 in assay [1] of 14 nM. `CC(C)CC1(c2ccccc2)CC(=O)C(SCCc2ccccc2)=C(O)O1` (stereo not drawn) came in with a concentration for half-maximal inhibition (IC50) in assay [1] of 1200 nM. In turn, `CCC(C)c1ccccc1SC1=C(O)OC(CCc2ccccc2)(c2ccccc2)CC1=O` (stereo not drawn) gave a 50% inhibitory concentration (IC50) in assay [1] of 10 nM. Against the preceding molecule, the IC50 is about 120-fold lower. In turn, `CC(C)CC1(c2ccccc2)CC(=O)C(SCc2ccccc2)=C(O)O1` (stereo not drawn) had an IC50 in assay [1] of 440 nM. Compared with the last molecule, the IC50 is about 44-fold higher.

Turning to `O=C1CC(CCc2ccccc2)(c2ccccc2)OC(O)=C1Sc1ccccc1C1CCCCC1` (stereo not drawn), 32 nM corresponded to half-maximal inhibition in assay [1] (IC50). On to `Cc1ccc(C(C)C)c(SC2=C(O)OC(CCc3ccccc3)(c3ccccc3)CC2=O)c1` (stereo not drawn), for which the results for the IC50 in assay [2] and in assay [3] were 7 nM and 79 nM, respectively. In turn, `Cc1ccc(C(C)C)c(SC2=C(O)OC(c3ccccc3)(c3ccccc3)CC2=O)c1` yielded an IC50 in assay [1] of 38 nM. That is a double-digit nanomolar value. Molecule `CC(C)c1ccc(C(C)(C)C)c(SC2=C(O)OC(CCc3ccccc3)(c3ccccc3)CC2=O)c1` (stereo not drawn) had an IC50 in assay [1] of 47 nM. The IC50 values of the last two molecules are within 1.5-fold of each other. The molecule `CCCCC1(c2ccccc2)CC(=O)C(SCCc2ccccc2)=C(O)O1` (stereo not drawn) displayed a half-maximal inhibitory concentration (IC50) in assay [1] of 400 nM. Compared with the last molecule, the IC50 is about 8.5-fold higher. Turning to `O=C1CC2(CCCc3ccccc32)OC(O)=C1SCCc1ccccc1` (stereo not drawn), in assay [1], half-maximal inhibition (IC50) was put at 1300 nM. In assay [1], `CC(C)CCCC1(c2ccccc2)CC(=O)C(SCc2ccccc2)=C(O)O1` (stereo not drawn) registered an IC50 of 183 nM. Consider `CN(CC1(c2ccccc2)CC(=O)C(SCCc2ccccc2)=C(O)O1)c1ccccc1` (stereo not drawn), for which the IC50 in assay [1] was 2280 nM. In assay [1], `O=C1CC(CC2CCCC2)(c2ccccc2)OC(O)=C1SCc1ccccc1` (stereo not drawn) came in with an IC50 of 88 nM. Compared with the last molecule, the IC50 is about 26-fold lower. The molecule `CC(C)CCC1(c2ccccc2)CC(=O)C(SCCc2ccccc2)=C(O)O1` (stereo not drawn) displayed a concentration for half-maximal inhibition (IC50) in assay [1] of 96 nM. Regarding `CCCCC1(c2ccccc2)CC(=O)C(SCc2ccccc2)=C(O)O1` (stereo not drawn), it took 270 nM to reach half-maximal inhibition in assay [1] (IC50).

`CC(C)c1ccc(C(C)C)c(SC2=C(O)OC(c3ccccc3)(c3ccccc3)CC2=O)c1` yielded an IC50 in assay [1] of 119 nM. Compared with the last molecule, the IC50 is about 2.3-fold lower. On to `CC(C)(C)c1ccccc1SC1=C(O)OC(CCc2ccccc2)(c2ccccc2)CC1=O` (stereo not drawn), for which the values for the 50% inhibitory concentration (IC50) in assay [2] and in assay [3] were 3 nM and 104 nM, respectively. For the molecule `O=C1CC(COc2ccccc2)(c2ccccc2)OC(O)=C1SCc1ccccc1` (stereo not drawn), half-maximal inhibition in assay [1] (IC50) was put at 172 nM.

The molecule `O=C1CC(c2ccccc2)(c2ccccc2)OC(O)=C1SCCc1ccccc1` had an IC50 in assay [1] of 152 nM.

Turning to `CC(C)c1ccccc1SC1=C(O)OC(CCc2ccccc2)(c2ccccc2)CC1=O` (stereo not drawn), the IC50 came to 14 nM in assay [2] and 97 nM in assay [3]. In assay [1], `CC(C)CCC1(c2ccccc2)CC(=O)C(SCc2ccccc2)=C(O)O1` (stereo not drawn) came in with an IC50 of 98 nM. Same read-out and setting: the value for `CC(C)c1ccccc1SC1=C(O)OC(c2ccccc2)(c2ccccc2)CC1=O` was 23 nM.

`O=C1CC(c2ccccc2)OC(O)=C1SCc1ccccc1` (stereo not drawn) displayed an IC50 in assay [1] of 8900 nM. Molecule `O=C(O)CCCCC1(c2ccccc2)CC(=O)C(SCCc2ccccc2)=C(O)O1` (stereo not drawn) registered a half-inhibitory concentration (IC50) in assay [1] of 5 nM. `CCC(C)c1ccccc1SC1=C(O)OC(c2ccccc2)(c2ccccc2)CC1=O` (stereo not drawn) gave a 50% inhibitory concentration (IC50) in assay [1] of 17 nM. As to `CCCCCCC1(c2ccccc2)CC(=O)C(SCc2ccccc2)=C(O)O1` (stereo not drawn), it took 180 nM to reach half-maximal inhibition in assay [1] (IC50).

As to `NC(=O)CCCCC1(c2ccccc2)CC(=O)C(SCCc2ccccc2)=C(O)O1` (stereo not drawn), the concentration for half-maximal inhibition (IC50) in assay [1] came to 338 nM. On the same count and under the same terms, the same measure for `CCCC1(c2ccccc2)CC(=O)C(SCCc2ccccc2)=C(O)O1` (stereo not drawn): 5100 nM; for `O=C1CC2(CCc3ccccc32)OC(O)=C1SCc1ccccc1` (stereo not drawn): 11800 nM; for `O=C1CC(c2ccccc2)(c2ccccc2)OC(O)=C1SCc1ccccc1`: 262 nM.

Regarding `Cc1ccc(C(C)C)c(Sc2c(O)cc(-c3ccccc3)oc2=O)c1`, the IC50 in assay [2] was 17 nM. For the molecule `O=C1CC(CC2CCCCC2)(c2ccccc2)OC(O)=C1SCc1ccccc1` (stereo not drawn), in assay [1], the IC50 amounted to 137 nM.

`O=C(O)CCCC1(c2ccccc2)CC(=O)C(SCCc2ccccc2)=C(O)O1` (stereo not drawn) gave an IC50 in assay [1] of 270 nM. With `CCCCCCC1(c2ccccc2)CC(=O)C(SCCc2ccccc2)=C(O)O1` (stereo not drawn), inhibition in assay [1] was half-maximal at 112 nM (IC50). This IC50 is about 2.4-fold lower than that of the molecule before.

As to `Cc1ccc(C(C)C)c(SC2=C(O)O[C@@](CCc3ccccc3)(c3ccccc3)CC2=O)c1`, it took 130 nM to reach half-maximal inhibition in assay [1] (IC50). Still for that read-out and setting: the value for `Cc1ccc(C(C)C)c(SC2=C(O)O[C@](CCc3ccccc3)(c3ccccc3)CC2=O)c1` was 6 nM. Take `CC(C)(C)c1ccccc1Sc1c(O)cc(-c2ccccc2)oc1=O`: 17 nM corresponded to half-maximal inhibition in assay [2] (IC50). Take `O=c1cc(-c2ccccc2)oc(O)c1Sc1ccccc1`: half-maximal inhibition in assay [1] (IC50) required 3100 nM.

In assay [1], `Cc1ccc(C(C)(C)C)c(SC2=C(O)OC(c3ccccc3)(c3ccccc3)CC2=O)c1` registered a half-inhibitory concentration (IC50) of 12 nM.

Consider `O=C1CC(c2ccccc2)OC(O)=C1SCCc1ccccc1` (stereo not drawn), for which it took 2100 nM to reach half-maximal inhibition in assay [1] (IC50). With `O=C1CC(CC2CCCC2)(c2ccccc2)OC(O)=C1SCCc1ccccc1` (stereo not drawn), in assay [1], the IC50 stood at 510 nM. On the same count and under the same terms, the value for `O=C1CC2(CCCc3ccccc32)OC(O)=C1SCc1ccccc1` (stereo not drawn) was 2300 nM; that for `CCCC1(c2ccccc2)CC(=O)C(SCc2ccccc2)=C(O)O1` (stereo not drawn) was 290 nM; that for `Cc1ccccc1SC1=C(O)OC(c2ccccc2)(c2ccccc2)CC1=O` was 388 nM.

Take `O=C1CC(c2ccccc2)(c2ccccc2)OC(O)=C1Sc1ccccc1C1CCCCC1`: the IC50 in assay [1] amounted to 127 nM. In the case of `O=C1CC(CCc2ccccc2)(c2ccccc2)OC(O)=C1Sc1ccccc1` (stereo not drawn), in assay [1], the IC50 turned out to be 130 nM. The IC50 values of the last two molecules are within 1.5-fold of each other.

Turning to `Cc1ccccc1SC1=C(O)OC(CCc2ccccc2)(c2ccccc2)CC1=O` (stereo not drawn), the IC50 in assay [1] is 73 nM.

On to `O=C(O)CCC1(c2ccccc2)CC(=O)C(SCCc2ccccc2)=C(O)O1` (stereo not drawn), for which the IC50 in assay [1] amounted to 1200 nM. In turn, `O=C1CC(CCCCO)(c2ccccc2)OC(O)=C1SCc1ccccc1` (stereo not drawn) returned a half-inhibitory concentration (IC50) in assay [1] of 1260 nM. For `Cc1ccc(C(C)(C)C)c(Sc2c(O)cc(-c3ccccc3)oc2=O)c1`, the half-inhibitory concentration (IC50) in assay [2] was 28 nM; in assay [3], 282 nM. `O=C1CC(CCc2ccccc2)(c2ccccc2)OC(O)=C1SCCc1ccccc1` (stereo not drawn) gave a 50% inhibitory concentration (IC50) in assay [1] of 51 nM.

The molecule `CCCCCC1(c2ccccc2)CC(=O)C(SCCc2ccccc2)=C(O)O1` (stereo not drawn) displayed a half-inhibitory concentration (IC50) in assay [1] of 84 nM.

`O=C1CC(c2ccccc2)(c2ccccc2)OC(O)=C1Sc1ccccc1` showed an IC50 in assay [1] of 110 nM. In turn, `O=C1CC(c2ccccc2)(c2ccccc2)OC(O)=C1Sc1ccccc1C1CCCC1` returned a 50% inhibitory concentration (IC50) in assay [1] of 14 nM.

In the case of `CC(C)(C)c1ccccc1SC1=C(O)OC(c2ccccc2)(c2ccccc2)CC1=O`, it took 49 nM to reach half-maximal inhibition in assay [1] (IC50).

For `Cc1ccc(C(C)(C)C)c(SC2=C(O)OC(CCc3ccccc3)(c3ccccc3)CC2=O)c1` (stereo not drawn), the IC50 in assay [2] worked out at 10 nM; in assay [3], 35 nM. Molecule `CC(C)CCCC1(c2ccccc2)CC(=O)C(SCCc2ccccc2)=C(O)O1` (stereo not drawn) registered an IC50 in assay [1] of 155 nM.

For `O=C1CC(c2ccccc2)(c2ccncc2)OC(O)=C1SCCc1ccccc1` (stereo not drawn), in assay [1], the IC50 was found to be 790 nM. Regarding `O=C1CC(CCc2ccccc2)(c2ccccc2)OC(O)=C1SCc1ccccc1` (stereo not drawn), half-maximal inhibition in assay [1] (IC50) required 60 nM. The molecule `CC(C)CCC1(c2ccccc2)CC(=O)C(Sc2ccccc2)=C(O)O1` (stereo not drawn) gave a concentration for half-maximal inhibition (IC50) in assay [1] of 1400 nM. In assay [1], `CCCCCC1(c2ccccc2)CC(=O)C(SCc2ccccc2)=C(O)O1` (stereo in doubt; 4b) registered an IC50 of 124 nM. Still for that read-out and setting: the value for `CCCCCC1(c2ccccc2)CC(=O)C(SCc2ccccc2)=C(O)O1` (stereo in doubt; 15b) was 327 nM.
